Data taken from patent US8372967B2, “Compounds and methods for modulating expression of GCCR” (Isis Pharmaceuticals, Inc., priority 2006, dated 2013).
Strand notation (5' to 3'): a small letter for the sugar, then the base; units joined by * are phosphorothioate-linked, units joined directly phosphodiester-linked; [ ] holds rarer units or linkages, { } end groups; capitals alone tell only the bases. e = 2'-O-(2-methoxyethyl) (MOE); [5mC] = 5-methylcytosine; d = 2'-deoxy (DNA)

tested on: PTP1B mRNA; assay: Dose response for human PTP1B in HuVEC cells, PPS 198 and PPS 3000 (Tables 86, 87); assay type: cell-based; conditions: PPS 198, 1.11 nM
Method: Human vascular endothelial (HuVEC) cells were plated at a density of 5000 cells per well and treated as described herein with nM concentrations of short antisense compound as indicated in Table 86. After the treatment period, RNA was isolated from the cells and PTP1B mRNA levels were measured by quantitative real-time PCR, as described herein. PTP1B mRNA levels were adjusted according to total RNA content as measured by RIBOGREEN®. Two different human PTP1B primer probe sets were used to measure mRNA levels. Results with Primer Probe Set (PPS) 198 are shown in Table 86, and results with Primer Probe Set (PPS) 3000 are shown in Table 87. Results are presented as percent inhibition of PTP1B mRNA expression relative to untreated control cells.

Substance	% Inhibition
398105 (eT*eG*d[5mC]*dA*d[5mC]*dA*dG*dG*d[5mC]*dA*dG*dG*eT*eT) [compound 398105]	0%
398112 (e[5mC]*eA*dG*d[5mC]*d[5mC]*dT*dG*dG*d[5mC]*dA*d[5mC]*d[5mC]*eT*eA) [compound 398112]	1%
398120 (eG*eT*dT*d[5mC]*dA*dA*dG*d[5mC]*dG*dG*d[5mC]*d[5mC]*eT*eA) [compound 398120]	0%
398173 (e[5mC]*dA*dG*d[5mC]*d[5mC]*dT*dG*dG*dG*d[5mC]*dA*e[5mC]) [compound 398173]	0%

same assay, conditions: PPS 198, 3.33 nM

Substance	% Inhibition
398105 (eT*eG*d[5mC]*dA*d[5mC]*dA*dG*dG*d[5mC]*dA*dG*dG*eT*eT) [compound 398105]	25%
398112 (e[5mC]*eA*dG*d[5mC]*d[5mC]*dT*dG*dG*d[5mC]*dA*d[5mC]*d[5mC]*eT*eA) [compound 398112]	10%
398120 (eG*eT*dT*d[5mC]*dA*dA*dG*d[5mC]*dG*dG*d[5mC]*d[5mC]*eT*eA) [compound 398120]	31%
398173 (e[5mC]*dA*dG*d[5mC]*d[5mC]*dT*dG*dG*dG*d[5mC]*dA*e[5mC]) [compound 398173]	4%

same assay, conditions: PPS 198, 10.0 nM

Substance	% Inhibition
398105 (eT*eG*d[5mC]*dA*d[5mC]*dA*dG*dG*d[5mC]*dA*dG*dG*eT*eT) [compound 398105]	79%
398112 (e[5mC]*eA*dG*d[5mC]*d[5mC]*dT*dG*dG*d[5mC]*dA*d[5mC]*d[5mC]*eT*eA) [compound 398112]	73%
398120 (eG*eT*dT*d[5mC]*dA*dA*dG*d[5mC]*dG*dG*d[5mC]*d[5mC]*eT*eA) [compound 398120]	80%
398173 (e[5mC]*dA*dG*d[5mC]*d[5mC]*dT*dG*dG*dG*d[5mC]*dA*e[5mC]) [compound 398173]	80%

same assay, conditions: PPS 198, 30.0 nM

Substance	% Inhibition
398105 (eT*eG*d[5mC]*dA*d[5mC]*dA*dG*dG*d[5mC]*dA*dG*dG*eT*eT) [compound 398105]	90%
398112 (e[5mC]*eA*dG*d[5mC]*d[5mC]*dT*dG*dG*d[5mC]*dA*d[5mC]*d[5mC]*eT*eA) [compound 398112]	93%
398120 (eG*eT*dT*d[5mC]*dA*dA*dG*d[5mC]*dG*dG*d[5mC]*d[5mC]*eT*eA) [compound 398120]	96%
398173 (e[5mC]*dA*dG*d[5mC]*d[5mC]*dT*dG*dG*dG*d[5mC]*dA*e[5mC]) [compound 398173]	97%

same assay, conditions: PPS 3000, 1.11 nM

Substance	% Inhibition
398105 (eT*eG*d[5mC]*dA*d[5mC]*dA*dG*dG*d[5mC]*dA*dG*dG*eT*eT) [compound 398105]	0%
398112 (e[5mC]*eA*dG*d[5mC]*d[5mC]*dT*dG*dG*d[5mC]*dA*d[5mC]*d[5mC]*eT*eA) [compound 398112]	0%
398120 (eG*eT*dT*d[5mC]*dA*dA*dG*d[5mC]*dG*dG*d[5mC]*d[5mC]*eT*eA) [compound 398120]	0%
398173 (e[5mC]*dA*dG*d[5mC]*d[5mC]*dT*dG*dG*dG*d[5mC]*dA*e[5mC]) [compound 398173]	0%

same assay, conditions: PPS 3000, 3.33 nM

Substance	% Inhibition
398105 (eT*eG*d[5mC]*dA*d[5mC]*dA*dG*dG*d[5mC]*dA*dG*dG*eT*eT) [compound 398105]	35%
398112 (e[5mC]*eA*dG*d[5mC]*d[5mC]*dT*dG*dG*d[5mC]*dA*d[5mC]*d[5mC]*eT*eA) [compound 398112]	26%
398120 (eG*eT*dT*d[5mC]*dA*dA*dG*d[5mC]*dG*dG*d[5mC]*d[5mC]*eT*eA) [compound 398120]	35%
398173 (e[5mC]*dA*dG*d[5mC]*d[5mC]*dT*dG*dG*dG*d[5mC]*dA*e[5mC]) [compound 398173]	18%

same assay, conditions: PPS 3000, 10.0 nM

Substance	% Inhibition
398105 (eT*eG*d[5mC]*dA*d[5mC]*dA*dG*dG*d[5mC]*dA*dG*dG*eT*eT) [compound 398105]	79%
398112 (e[5mC]*eA*dG*d[5mC]*d[5mC]*dT*dG*dG*d[5mC]*dA*d[5mC]*d[5mC]*eT*eA) [compound 398112]	77%
398120 (eG*eT*dT*d[5mC]*dA*dA*dG*d[5mC]*dG*dG*d[5mC]*d[5mC]*eT*eA) [compound 398120]	79%
398173 (e[5mC]*dA*dG*d[5mC]*d[5mC]*dT*dG*dG*dG*d[5mC]*dA*e[5mC]) [compound 398173]	80%

same assay, conditions: PPS 3000, 30.0 nM

Substance	% Inhibition
398105 (eT*eG*d[5mC]*dA*d[5mC]*dA*dG*dG*d[5mC]*dA*dG*dG*eT*eT) [compound 398105]	93%
398112 (e[5mC]*eA*dG*d[5mC]*d[5mC]*dT*dG*dG*d[5mC]*dA*d[5mC]*d[5mC]*eT*eA) [compound 398112]	94%
398120 (eG*eT*dT*d[5mC]*dA*dA*dG*d[5mC]*dG*dG*d[5mC]*d[5mC]*eT*eA) [compound 398120]	93%
398173 (e[5mC]*dA*dG*d[5mC]*d[5mC]*dT*dG*dG*dG*d[5mC]*dA*e[5mC]) [compound 398173]	90%
